From patent US6258815A, “Specific immunophilin ligands as antiasthmatics and immunosuppressants” (ASTA Medica Aktiengesellschaft, priority 1996, dated 2001)
Entries after “also recorded” stand apart in the source; their conditions may differ.

Experiments:
[1] = system: cytokines, like IL-2, IL-4 and IL-5; details: animal experiments; reference substances; cited from earlier work
[2] = system: IL-2 gene transcription in T cells; details: cited from earlier work
FKBP = details: cited from earlier work
CypB-CsA = test: displacement of 3H-CsA from CypB-CsA (gel filtration of T cell homogenate); assay type: binding, human; details: Compound [10 μmol]; 3H-CsA (100 nmol)
Protocol: (§1) To study the interaction with this supermolecule from CsA-CypB or CsA-CypB-calcineurin, the compounds of the general formula I according to the invention were incubated with cell homogenate of a human T cell line containing ^3 H-CsA (100 nmol). After gel filtration on Superose 12, the radioactivity of the eluted fractions was measured and compared with the untreated control. The corresponding displacement of ^3 H-CsA from the supermolecules CypB-CsA and CypB-CsA-calcineurin by the compounds of the general formula I according to the invention is shown in Table 2: […]

human cyclophilin B = human cyclophilin B (Homo sapiens, UniProt P23284); test: PPlase test (inhibition of peptidyl-prolyl cis/trans-isomerase activity); assay type: biochemical; details: Compound [10 μmol], human CypB
Protocol: The compounds of the formula (I) according to the invention are distinguished by binding to immunophilins and inhibit their isomerase activity. This prolyl isomerase activity is assayed by an enzyme test conventionally used throughout the world: G. Fischer, H. Bang, A. Schellenberger, Biochim. Biophys. Acta, 791, 87-97, 1984; D. H. Rich et al., J. Med. Chem. 38, 4164-4170, 1995.
[…] This PPlase activity is assayed by an enzyme test conventionally used throughout the world: G. Fischer, H. Bang, C. Mech, Biomed. Biochim. Acta, 43, 1101-1111; G. Fischer, R. Bang, A. Schellenberger, Biochim. Biophys. Acta, 791, 87-97, 1984; D. H. Rich et al., J. Med. Chem. 38, 4164-4170, 1995.
The compounds of the general formula I according to the invention are preincubated together with 10 nmol of CypB for 15 min at 4° C. The enzyme reaction is started after the addition of chymotrypsin and HEPES buffer with the test peptide Suc-Ala-Ala-Pro-Phe-Nan. The change in extinction at 390 nm is then monitored and evaluated. The change in extinction determined by photometry results from two partial reactions: a) the rapid chymotryptic cleavage of the trans-peptide; and b) the […] cis/trans isomerization catalysed by cyclophilins.

CypB-CsA-calcineurin = test: displacement of 3H-CsA from CypB-CsA-calcineurin (gel filtration of T cell homogenate); assay type: binding, human; details: Compound [10 μmol]; 3H-CsA (100 nmol)
Protocol: as §1

[3] = system: T cells stimulated with OKT-3; test: IL-2 proliferation test (3H-thymidine incorporation into T cells stimulated with OKT-3); assay type: cell-based; details: Homo sapiens, T-cell; Compound [10 μmol]; 45 h incubation, OKT-3 1 μg/ml; read-out: CD3-induced inhibition of proliferation in [%]
Protocol: The IL-2 proliferation test is based on the incorporation of ^3 H-thymidine into T cells stimulated with OKT-3 (human anti-CD3 antibodies) and is performed as follows:
100,000 T cells are inoculated into 150 μl of culture medium per well in microtitre plates, stimulated by the addition of OKT-3 (1 μg/ml) and incubated for 45 h with each of the compounds of the general formula I according to the invention. After this incubation period, 10 μl of the ^3 H-thymidine solution (0.5 μCi) are pipetted into each well. Incubation is then carried out for 6 h at 37° C. in a 5% CO2 atmosphere. After the cells have been harvested, the radioactivity is quantified in a β-counter. The corresponding CD3-induced inhibition of proliferation by the compounds of the general formula I according to the invention is shown in Table 3: […]

Sequence of human cyclophilin B (P23284 34-216): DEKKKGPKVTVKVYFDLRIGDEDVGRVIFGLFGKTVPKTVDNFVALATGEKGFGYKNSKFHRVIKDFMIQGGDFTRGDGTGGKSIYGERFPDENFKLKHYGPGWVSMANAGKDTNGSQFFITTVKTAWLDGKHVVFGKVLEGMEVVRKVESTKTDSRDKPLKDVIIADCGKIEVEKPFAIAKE

SMILES | inhibition at 10 µM (human cyclophilin B) [%] | blocking of cytokines, like IL-2, IL-4 and IL-5 [1] | inhibition of gene transcription including the IL-2 gene [2] | binding affinity to receptor protein FKBP (FKBP) | Displacement from CypB-CsA in [%] (CypB-CsA) | Displacement from CypB-CsA-CN in [%] (CypB-CsA-calcineurin) | inhibition [3] [%]
C=CC[C@@H]1/C=C(\C)C[C@H](C)C[C@H](OC)[C@H]2O[C@@](O)(C(=O)C(=O)N3CCCC[C@H]3C(=O)O[C@H](/C(C)=C/[C@@H]3CC[C@@H](O)[C@H](OC)C3)[C@H](C)[C@@H](O)CC1=O)[C@H](C)C[C@@H]2OC [FK 506] | – | blocking of various cytokines, like IL-2, IL-4 and IL-5; also recorded: exhibit the blocking of cytokines, like IL-2, IL-4 and IL-5 | inhibit the transcription of a number of genes, including the IL-2 gene | bind with high affinity | – | – | –
COC(=O)[C@H](CCCCN)NC(=O)C1Cc2ccccc2N1C(=O)C1Cc2ccccc2N1 (stereo partly drawn) [Example 4, N-[indoline-2-(R,S)-carbonyl]indoline-2-(R,S)-carboxylic acid [S-(ε-NH2)lysinemethyl ester]amide] | 0 to 20 | – | – | – | 33 | -42 | 38
COC(=O)[C@H](CCCCN)NC(=O)C1Cc2ccccc2N1C(=O)C1CCNCC1 (stereo partly drawn) [Example 2, N-[piperidyl-4-carbonyl]indoline-2-(R,S)-carboxylic acid [S-(ε-NH2)lysinemethyl ester]amide] | 0 to 20 | – | – | – | 45 | -53 | 40
COC(=O)C1Cc2ccccc2N1C(=O)C1CCN(C(=O)Cc2ccc(OC)cc2)CC1 (racemic) [Example 8, N-[N'-(4-methoxyphenylacetyl)piperidyl-4-carbonyl]indoline-2-(R,S)-carboxylic acid methyl ester] | 0 to 20 | – | – | – | 0 | 8 | –
COC(=O)[C@H](CCCCNC(=O)OC(C)(C)C)NC(=O)C1Cc2ccccc2N1C(=O)C1CCN(C(=O)OC(C)(C)C)CC1 (stereo partly drawn) [Example 1, N-[1-Boc-piperidyl-4-carbonyl]indoline-2-(R,S)-carboxylic acid [S-(N-ε-Boc)lysinemethyl ester]amide] | 0 to 20 | – | – | – | 10 | 45 | 86
CC(C)(C)OC(=O)N1c2ccccc2CC1C(=O)Nc1ccncc1 (racemic) [Example 10] | 0 to 20 | – | – | – | -58 | 0 | 6
CC(C)(C)OC(=O)N1c2ccccc2CC1C(=O)N1CCN(CC(=O)N2CCOCC2)CC1 (racemic) [Example 11, N-Boc-indoline-2-(R,S)-carboxylic acid (piperazinoacetic acid morpholide)amide] | 0 to 20 | – | – | – | -28 | 0 | 9
CC(C)(C)OC(=O)N1CCC(C(=O)N2c3ccccc3CC2C(=O)N2CCN(CC(=O)N3CCOCC3)CC2)CC1 (racemic) [Example 12, N-[1-Boc-piperidyl-4-carbonyl]indoline-2-(R,S)-carboxylic acid (piperazinoacetic acid morpholide)amide] | 0 to 20 | – | – | – | 8 | -25 | 5
CO[C@H]1C[C@@H]2CC[C@@H](C)[C@@](O)(O2)C(=O)C(=O)N2CCCC[C@H]2C(=O)O[C@H]([C@H](C)C[C@@H]2CC[C@@H](O)[C@H](OC)C2)CC(=O)[C@H](C)/C=C(\C)[C@@H](O)[C@@H](OC)C(=O)[C@H](C)C[C@H](C)/C=C/C=C/C=C/1C [rapamycin] | – | exhibit the blocking of cytokines, like IL-2, IL-4 and IL-5 | – | – | – | – | –
COC(=O)C1Cc2ccccc2N1C(=O)Cc1ccc(OC)cc1 (racemic) [Example 9, N-(4-methoxyphenylacetyl)indoline-2-(R,S)-carboxylic acid methyl ester] | 0 to 20 | – | – | – | 39 | 37 | –

The next lines start with results.

inhibition at 10 µM (human cyclophilin B) [%] | SMILES | blocking of cytokines, like IL-2, IL-4 and IL-5 [1] | inhibition of gene transcription including the IL-2 gene [2] | binding affinity to receptor protein FKBP (FKBP) | Displacement from CypB-CsA in [%] (CypB-CsA) | Displacement from CypB-CsA-CN in [%] (CypB-CsA-calcineurin) | inhibition [3] [%]
0 to 20 | COC(=O)[C@H](Cc1ccccc1)NC(=O)C1Cc2ccccc2N1C(=O)OC(C)(C)C (stereo partly drawn) [Example 7, 1-Boc-indoline-2-(R,S)-carboxylic acid (S-phenylalanine methyl ester)amide] | – | – | – | 38 | 0 | 7
0 to 20 | COC(=O)[C@H](CCCCNC(=O)OC(C)(C)C)NC(=O)C1Cc2ccccc2N1C(=O)C1Cc2ccccc2N1C(=O)OC(C)(C)C (stereo partly drawn) [Example 3, N-[1-Boc-indoline-2-(R,S)-carbonyl]indoline-2-(R,S)-carboxylic acid [S-(N-ε-Boc)lysinemethyl ester]amide] | – | – | – | 14 | 22 | 82
0 to 20 | COC(=O)[C@H](CCCCNC(=O)OCc1ccccc1)NC(=O)C1Cc2ccccc2N1C(=O)C1Cc2ccccc2N1C(=O)OC(C)(C)C (stereo partly drawn) [Example 5, N-[1-Boc-indoline-2-(R,S)-carbonyl]indoline-2-(R,S)-carboxylic acid [S-(N-ε-Z)lysinemethyl ester]amide] | – | – | – | 16 | 20 | 92
0 to 20 | COC(=O)[C@H](CCCCNC(=O)OCc1ccccc1)NC(=O)C1Cc2ccccc2N1C(=O)C1CCN(C(=O)Cc2ccc(OC)cc2)CC1 (stereo partly drawn) [Example 13, N-[N'-(4-methoxyphenylacetyl)piperidyl-4-carbonyl]indoline-2-(R,S)-carboxylic acid [S-(N-ε-Z)lysinemethyl ester]amide] | – | – | – | 46 | -16 | 66
20 to 40 | COC(=O)[C@H](CCCCNC(=O)OCc1ccccc1)NC(=O)C1Cc2ccccc2N1C(=O)OC(C)(C)C (stereo partly drawn) [Example 6, 1-Boc-indoline-2-(R,S)-carboxylic acid [S-(N-ε-Z)lysinemethyl ester]amide] | – | – | – | 0 | 7 | 84
